Reference: patent US7259002B2, “Polynucleotide encoding a novel acyl coenzyme A, monoacylglycerol acyltransferase-3 (MGAT3), and uses thereof” (Bristol-Myers Squibb Company, priority 2003, dated 2007)

Key:
Format in all cases: biochemical
recombinant human MGAT3 = biological target: T1, recombinant human MGAT3 (Homo sapiens, UniProt Q86VF5); experiment: Substrate concentration titration and substrate specificity in the MGAT enzyme assay; conditions: for substrate optimum for acyl-CoAs: acyl-CoAs at 50 μM, 200 μM sn-2-[3H]monooleoylglycerol tracer; for optimal substrate concentration: 10 μg membrane fractions, 10 min at 37° C.
T1 construct: predicted to contain the entire open reading frame, was chosen for further study; made in house; host or cells: Spodoptera frugiperda Sf9 insect cells (baculovirus, Bac-to-Bac); 100,000 x g membrane fractions
T1 sequence (Q86VF5 1-341): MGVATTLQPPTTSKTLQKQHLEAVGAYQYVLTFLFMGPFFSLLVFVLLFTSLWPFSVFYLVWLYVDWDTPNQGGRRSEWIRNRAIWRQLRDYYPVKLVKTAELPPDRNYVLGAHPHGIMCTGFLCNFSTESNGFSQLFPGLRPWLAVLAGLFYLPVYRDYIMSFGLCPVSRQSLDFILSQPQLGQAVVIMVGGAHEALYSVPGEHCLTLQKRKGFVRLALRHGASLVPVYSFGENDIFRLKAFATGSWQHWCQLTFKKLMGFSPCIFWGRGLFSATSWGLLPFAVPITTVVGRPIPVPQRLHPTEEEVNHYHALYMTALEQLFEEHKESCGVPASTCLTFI
Procedure: Sf9 cells were setup and infected with either wild type or recombinant MGAT3 viruses as in FIG. 4. After 2 days of infection, the cells were harvested, membrane fractions were prepared and aliquots of membranes were subjected to MGAT enzyme assays with various concentrations of substrates. For A, 200 μM sn-2-monooleoylglycerol and various amounts of [14C]oleoyl coenzyme A (20,000 dpm/nmol) and for B, 50 μM [14C]oleoyl coenzyme A (20,000 dpm/nmol) and various amounts of sn-2-monooleoylglycerol were incubated with 10 μg membrane fractions for 10 min at 37° C. Lipid bands corresponding to TAG and DAG were cut from TLC sheets and counted with scintillation counter. Activities were corrected values of recombinant membranes deducted by values of wild type membranes. Duplicated assays were conducted and the standard deviations were smaller than 10% of the mean.
Sf9 cells were setup and infected either with wild type, recombinant MGAT3 or with DGAT2 viruses as in FIG. 4. Aliquots of membrane fractions (10 μg) were subjected to MGAT assays to determine A) MAG stereoisomer specificity and B) preference of fatty acyl-CoAs. In A, 50 μM [14C]oleoyl coenzyme A (20,000 dpm/nmol) and 200 μM of sn-1-monooleoyglycerol (1-MAG), sn-2-monooleoyglycerol (2-MAG), or […] (3-MAG); and in B, 200 μM sn-2-[3H]monooleoylglycerol (20,000 dpm/nmol) and different acyl-CoAs at 50 μM were incubated with 10 μg membrane fractions at 37° C. for 10 min. C2, acetyl-CoA; M, malonyl-CoA; C4:0, butyryl-CoA; C12:0, lauroyl-CoA; C16:0, palmitoyl-CoA; C18:0, stearoyl-CoA; C20:0, arachidoyl-CoA; C18:1, oleoyl-CoA; C18:2, linoleoyl-CoA; C20:4, arachidonoyl-CoA.
MGAT activities were assayed for 5-10 min at 37° C. in a final volume of 200 μl according to a protocol modified from Coleman (Coleman, R. A. (1992) Methods Enzymol. 209:98-104). Each reaction contained 10 μg of membrane proteins in Assay Buffer (100 mM Tris-HCl, pH7.5, 5 mM MgCl2, 1.25 mg/ml BSA, 250 mM sucrose, 800 μM phophatidylcholine liposomes). Generally, 50 μM of acyl coenzyme A and 200 μM sn-2-monoacylglycerol (delivered in acetone, final acetone concentration <2%) were used. Reactions were started by adding protein and terminated by adding 4 ml chloroform/methanol (2/1, v/v). The extracted lipids were dried, separated by thin layer chromatography (TLC) with hexane/ethyl ether/acetic acid (85/15/0.5, v/v/v).
Identities of triacylglycerol (TAG), diacylglycerol (DAG), monoacylglycerol (MAG), free fatty acid (FFA) and other lipids were verified with lipid standards (Sigma) after staining with iodine vapor. The specific enzyme activities were traced by measuring the incorporation of [14C]oleoyl-CoA (20,000 dpm/nmol) or sn-2-[3H] monooleolyglycerol (20,000 dpm/nmol). Chromatograms were also analyzed with STORM PhosphoImager.

[1] = DGAT activity: exogenous DAG assayed directly with recombinant membranes (TLC); conditions: Sf9 membranes, [14C]oleoyl-CoA tracer
[2] = MGAT enzyme assay (TLC, scintillation counting) of membranes from Sf9 cells expressing the recombinant enzyme; conditions: 50 μM [14C]oleoyl coenzyme A
Procedure: Sf9 cells were setup and infected with wild type or recombinant MGAT3 viruses as in FIG. 4. Membrane extracts were prepared from the cells with various post infection times. Aliquots of membrane fractions were either subjected to A) immunoblot analysis with anti-FLAG IgG; or to B) TLC enzyme assays. For substrates, 200 μM sn-2-monooleoylglycerol and 50 μM [14C]oleoyl coenzyme A (20,000 dpm/nmol) were incubated with 10 μg membrane fractions for 6 min at 37° C. After TLC separation, the DAG and the TAG bands were cut from TLC sheets and subjected to scintillation counting. The activities were expressed as nmol/min/mg protein. Values were averages of duplicated determinations and the standard deviations were smaller than 10% of the mean.
The predicted coding sequence of human MGAT3 was fused with an NH2-terminal FLAG epitope (MGDYKDDDDG, (SEQ ID NO:21) epitope underlined) and expressed in Spodoptera frugiperda (Sf9) insect cells using Bac-to-Bac™ kit (Life Technologies) according to manufacturer's instructions. Recombinant FLAG-human-DGAT2 was expressed in the same manner as a control. Generally, cells were infected with viruses (MOI>3) for 2 days. After harvest, cells were washed with PBS, and then homogenized with a probe sonicator in Homogenization Buffer (10 mM Tris-HCl, pH 7.4, 250 mM sucrose, 1× Protease Inhibitor Cocktail [Roche]). Membrane fractions (100,000×g pellets) were stored at −80° C. until use for enzymatic assays. For immunoblot analysis, aliquots of 2 μg of membrane proteins were loaded on SDS-PAGE and probed with an anti-FLAG M2 IgG (Sigma).
MGAT activities were assayed for 5-10 min at 37° C. in a final volume of 200 μl according to a protocol modified from Coleman (Coleman, R. A. (1992) Methods Enzymol. 209:98-104). […]
Identities of triacylglycerol (TAG), diacylglycerol (DAG), monoacylglycerol (MAG), free fatty acid (FFA) and other lipids were verified with lipid standards (Sigma) after staining with iodine vapor. […] Chromatograms were also analyzed with STORM PhosphoImager.

[3] = Sf9 cell membranes, 200 μM sn-2-monooleoylglycerol, 6 min at 37° C., highest value of time course

Molecule: CCCCCCCCCCCCCCCC(=O)SCCNC(=O)CCNC(=O)[C@H](O)C(C)(C)COP(=O)(O)OP(=O)(O)OC[C@H]1O[C@@H](n2cnc3c(N)ncnc32)[C@H](O)[C@@H]1OP(=O)(O)O [palmitoyl-CoA]
- substrate optimum for acyl-CoAs (recombinant human MGAT3): best substrates

Molecule: CCCCCCCC/C=C\CCCCCCCC(=O)OC(CO)CO [2-monooleoylglycerol, sn-2-monooleoylglycerol]
- optimal substrate concentration (recombinant human MGAT3): 200 µM
- MAG stereoisomer specificity (DAG synthesis) (recombinant human MGAT3; 200 μM MAG, 50 μM [14C]oleoyl coenzyme A): prefers 2-MAG as the substrate

Molecule: CCCCCCCC/C=C\CCCCCCCC(=O)SCCNC(=O)CCNC(=O)[C@H](O)C(C)(C)COP(=O)(O)OP(=O)(O)OC[C@H]1O[C@@H](n2cnc3c(N)ncnc32)[C@H](O)[C@@H]1OP(=O)(O)O [oleoyl-CoA]
- optimal substrate concentration (recombinant human MGAT3): 50 µM
- substrate optimum for acyl-CoAs (recombinant human MGAT3): best substrates

B1: MGAT3: monoacylglycerol acyltransferase-3, 341 amino acid protein of SEQ ID NO:2 (protein, listed as Homo Sapiens)
chain: T1 sequence (Q86VF5 1-341)
- acylation of exogenous DAG to TAG (DGAT activity) [1]: able to acylate DAG to form TAG directly
- specific activity for DAG [2, 3]: 22.8 nmol/min/mg
- specific activity for TAG [2, 3]: 9.3 nmol/min/mg

B2: DGAT2: recombinant human diacylglycerol acyltransferase 2 expressed in the same manner as a control (protein, listed as Homo Sapiens)
chain: MKTLIAAYSGVLRGERQAEADRSQRSHGGPALSREGSGRWGTGSSILSALQDLFSVTWLNRSKVEKQLQVISVLQWVLSFLVLGVACSAILMYIFCTDCWLIAVLYFTWLVFDWNTPKKGGRRSQWVRNWAVWRYFRDYFPIQLVKTHNLLTTRNYIFGYHPHGIMGLGAFCNFSTEATEVSKKFPGIRPYLATLAGNFRMPVLREYLMSGGICPVSRDTIDYLLSKNGSGNAIIIVVGGAAESLSSMPGKNAVTLRNRKGFVKLALRHGADLVPIYSFGENEVYKQVIFEEGSWGRWVQKKFQKYIGFAPCIFHGRGLFSSDTWGLVPYSKPITTVVGEPITIPKLEHPTQQDIDLYHTMYMEALVKLFDKHKTKFGLPETEVLEVN
modifications: FLAG tag
notes: recombinant human diacylglycerol acyltransferase 2 expressed in the same manner as a control
- TAG synthesis from MAG stereoisomers ([2]; Sf9 membranes, 1-MAG, 2-MAG or 3-MAG at 200 μM): able to synthesize similar amount of TAG using three different MAG stereoisomers
